Laboratory results taken from ChEMBL document CHEMBL4831508, “Anti-inflammatory Cassane-Type Diterpenoids from the Seed Kernels of Caesalpinia sinensis” (J Nat Prod, 2021).

What was measured:
RAW264.7 [1] = assay: Antiinflammatory activity in mouse RAW264.7 cells assessed as inhibition of LPS-induced NO production preincubated for 3 hrs followed by LPS-stimulation and measured after 24 hrs by Griess reagent based assay; assay type: functional, cell-based
RAW264.7 [2] = assay: Cytotoxicity against mouse RAW264.7 cells assessed as cell viability measured after 24 hrs by CCK8 assay; assay type: cell-based; settings: raw264.7, 24 h
RAW264.7 [3] = assay: Antiinflammatory activity in mouse RAW264.7 cells assessed as inhibition of LPS-induced iNOSs protein expression preincubated for 3 hrs followed by LPS-stimulation and measured after 24 hrs by Western blot analysis; assay type: functional, cell-based; settings: dose 3-30 µM
RAW264.7 [4] = assay: Antiinflammatory activity in mouse RAW264.7 cells assessed as inhibition of LPS-induced iNOS enzyme activity preincubated for 3 hrs followed by LPS-stimulation and measured after 24 hrs by fluorescence plate reader assay; assay type: functional, cell-based; settings: dose 3-30 µM

Row | Structure (SMILES) | IC50 (RAW264.7 [1]) [µM] | Activity (RAW264.7 [2]) | inhibition (RAW264.7 [3]) | inhibition (RAW264.7 [4])
1 | CO[C@@]12C[C@H]3[C@@H](C[C@@H](O)[C@H]4C(C)(C)CCC[C@]34C)[C@@H](C)C1=CC(=O)O2 | 29.2 | Non-Toxic | – | –
2 | CO[C@@]12C[C@H]3[C@@H](C[C@@H](OC(C)=O)[C@H]4C(C)(C)CCC[C@]34C)[C@@H](C)C1=CC(=O)O2 | > 50 | Non-Toxic | – | –
3 | C[C@H]1C2=CC(=O)O[C@@H]2C[C@H]2[C@H]1C[C@@H](O)[C@H]1C(C)(C)CCC[C@]21C | 40.3 | Non-Toxic | – | –
4 | C[C@H]1C2=CC(=O)OC2=C[C@H]2[C@H]1C[C@@H](O)[C@H]1[C@](C)(CO)CCC[C@]21C | 45.8 | Non-Toxic | – | –
5 | CC(=O)O[C@@H]1C[C@H]2[C@@H](C)C3=CC(=O)O[C@@H]3C[C@@H]2[C@@]2(C)CCCC(C)(C)[C@H]12 | > 50 | Non-Toxic | – | –
6 | CC(=O)O[C@H]1CC[C@]2(C)[C@H]3C[C@H]4OC(=O)C=C4[C@H](C)[C@@H]3CC[C@H]2C1(C)C | 49.8 | Non-Toxic | – | –
7 | C[C@H]1C2=CC(=O)N(CCO)[C@@H]2C[C@H]2[C@H]1C[C@@H](O)[C@H]1C(C)(C)CCC[C@]21C | 16.4 | Non-Toxic | – | –
8 | C[C@@H]1C[C@H]2[C@@H]3CCC4=CC(=O)C=C[C@]4(C)[C@@]3(F)[C@@H](O)C[C@]2(C)[C@@]1(O)C(=O)CO [DEXAMETHASONE] | 0.58 | Non-Toxic | – | –
9 | C[C@H]1C2=CC(=O)O[C@]2(O)C[C@H]2[C@H]1C[C@@H](O)[C@H]1C(C)(C)CCC[C@]21C | 21.5 | Non-Toxic | – | –
10 | CC(=O)O[C@@H]1C[C@@H]2[C@H](C=C3NC(=O)C=C3[C@]2(C)O)[C@@]2(C)CCCC(C)(C)[C@H]12 | 11.2 | Non-Toxic | – | –
11 | CC(=O)O[C@@H]1C[C@@H]2[C@H](C=C3NC(=O)C=C3[C@@]2(C)O)[C@@]2(C)CCCC(C)(C)[C@H]12 | 9.8 | Non-Toxic | – | –
12 | C[C@H]1C2=CC(=O)OC2=C[C@H]2[C@H]1C[C@@H](O)[C@H]1C(C)(C)CCC[C@]21C | 34.4 | Non-Toxic | – | –

Further lines, with some results ahead:

Row | IC50 (RAW264.7 [1]) [µM] | Structure (SMILES) | Activity (RAW264.7 [2]) | inhibition (RAW264.7 [3]) | inhibition (RAW264.7 [4])
13 | > 50 | CC(=O)O[C@@H]1CC(C)(C)[C@@H]2CC[C@H]3[C@@H](C)C4=CC(=O)O[C@@H]4C[C@@H]3[C@@]2(C)C1 | Non-Toxic | – | –
14 | 21 | C[C@@H]1[C@@H]2C[C@@H](O)[C@H]3[C@](C)(CO)CCC[C@]3(C)[C@H]2C=C2NC(=O)C[C@@H]21 | Non-Toxic | – | –
15 | 8.2 | C[C@H]1C2=CC(=O)NC2=C[C@H]2[C@H]1C[C@@H](O)[C@H]1C(C)(C)CCC[C@]21C | Non-Toxic | Dose-Dependent Effect | Dose-Dependent Effect
16 | > 50 | CO[C@@]12C[C@H]3[C@@H](CC[C@H]4C(C)(C)CCC[C@]34C)[C@@H](C)C1=CC(=O)O2 | Non-Toxic | – | –
17 | > 50 | CO[C@@]12C[C@H]3[C@@H](C[C@@H](O)[C@H]4[C@](C)(CO)CCC[C@]34C)[C@@H](C)C1=CC(=O)O2 | Non-Toxic | – | –
18 | > 50 | C[C@H]1C2=CC(=O)O[C@@H]2C[C@H]2[C@H]1C[C@@H](O)[C@H]1[C@@](C)(CO)CCC[C@]21C | Non-Toxic | – | –
19 | > 50 | CC(=O)O[C@@H]1C[C@H]2[C@@H](C)C3=CC(=O)OC3=C[C@@H]2[C@@]2(C)CCCC(C)(C)[C@H]12 | Non-Toxic | – | –
